Consider 15 molecules from patent publication US20230374038A1, “MODULATORS OF CYSTIC FIBROSIS TRANSMEMBRANE CONDUCTANCE REGULATOR” (VERTEX PHARMACEUTICALS INCORPORATED, priority 2020, published 2023).

For series [1] the following is noted: amide bond.
Another series deals with CFTR (Homo sapiens, UniProt P13569). Briefly: Membrane Potential Dye, Enteroid Assay B. In kind it is cell-based. Conditions: for EC50: read-out: Ent. B EC50. The gist of the method:
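Membrane-potential fluorescence read over 15 min after chloride-free stimulation (forskolin 10 μM, IBMX 100 μM, Compound III 300 nM), with CaCCinh-A01 and Chicago Sky Blue present. Enteroids had 18-24 h compound exposure at 37 °C; activity given as % of the triple-combination corrector/potentiator reference response.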

Read-outs that look alike come from different tables or passages of the source.

CFTR, sequence (P13569 with tags, fused parts or gaps DEL508-508): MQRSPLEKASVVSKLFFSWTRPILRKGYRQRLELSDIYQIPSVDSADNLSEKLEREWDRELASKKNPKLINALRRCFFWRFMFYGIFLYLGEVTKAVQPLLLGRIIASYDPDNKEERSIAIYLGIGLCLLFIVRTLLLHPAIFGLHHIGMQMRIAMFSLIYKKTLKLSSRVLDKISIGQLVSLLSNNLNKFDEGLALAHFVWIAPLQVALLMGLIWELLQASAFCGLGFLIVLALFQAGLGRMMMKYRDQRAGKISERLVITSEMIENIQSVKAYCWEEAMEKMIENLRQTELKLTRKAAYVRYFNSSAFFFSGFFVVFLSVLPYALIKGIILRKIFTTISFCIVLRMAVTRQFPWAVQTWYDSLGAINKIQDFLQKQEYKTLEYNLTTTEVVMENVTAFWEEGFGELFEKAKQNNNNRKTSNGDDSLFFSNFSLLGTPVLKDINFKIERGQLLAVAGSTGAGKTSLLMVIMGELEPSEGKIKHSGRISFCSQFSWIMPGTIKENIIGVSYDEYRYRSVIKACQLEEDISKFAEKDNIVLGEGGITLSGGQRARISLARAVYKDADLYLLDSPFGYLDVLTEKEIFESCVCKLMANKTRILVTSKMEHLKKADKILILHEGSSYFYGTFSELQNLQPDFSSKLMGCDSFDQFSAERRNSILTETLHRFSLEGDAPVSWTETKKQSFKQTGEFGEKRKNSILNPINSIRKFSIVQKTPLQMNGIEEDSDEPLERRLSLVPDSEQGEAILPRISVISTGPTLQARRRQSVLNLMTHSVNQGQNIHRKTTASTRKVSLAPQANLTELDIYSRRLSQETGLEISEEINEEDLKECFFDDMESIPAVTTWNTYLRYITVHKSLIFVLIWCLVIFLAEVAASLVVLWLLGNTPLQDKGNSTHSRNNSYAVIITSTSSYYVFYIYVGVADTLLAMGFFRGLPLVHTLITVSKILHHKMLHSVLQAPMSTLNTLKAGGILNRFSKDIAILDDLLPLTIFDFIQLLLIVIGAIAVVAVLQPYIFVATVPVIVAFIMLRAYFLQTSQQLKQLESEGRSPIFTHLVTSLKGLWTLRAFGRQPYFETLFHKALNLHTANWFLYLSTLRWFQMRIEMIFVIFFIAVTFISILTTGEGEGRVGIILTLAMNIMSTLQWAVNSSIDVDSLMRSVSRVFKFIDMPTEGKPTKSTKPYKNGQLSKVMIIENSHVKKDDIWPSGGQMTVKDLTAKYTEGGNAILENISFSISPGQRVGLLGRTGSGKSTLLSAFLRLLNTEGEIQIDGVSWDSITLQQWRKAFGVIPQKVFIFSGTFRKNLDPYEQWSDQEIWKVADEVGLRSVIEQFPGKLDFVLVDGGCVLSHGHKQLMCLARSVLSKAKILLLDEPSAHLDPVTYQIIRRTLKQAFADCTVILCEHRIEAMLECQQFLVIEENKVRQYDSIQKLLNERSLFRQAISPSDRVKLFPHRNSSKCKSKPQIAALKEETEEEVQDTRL

For orientation: EC50 means the concentration needed to bring the measured effect to its halfway point. With `Cc1cccc(C)c1-c1nc2nc(c1C)OCCCNC(=O)c1cccc(c1)S(=O)(=O)N2` [Compound 36, 6-(2,6-Dimethylphenyl)-7-methyl-9-oxa-2λ^6-thia-3,5,13,20-tetraazatricyclo[13.3.1.14,8]icosa-1(19),4,6,8(20),15,17-hexaene-2,2,14-trione], in series [1] (from Cc1cccc(C)c1-c1nc(NS(=O)(=O)c2cccc(C(=O)O)c2)nc(OCCCN)c1C, 14-membered ring, HATU/DIEA, DMF, 49.0 mM, 25.0 °C, 1.0 h), the ring closure, yield after HPLC amounted to 46%. On CFTR, the “Ent. B Max Activity” value was “+ (+ is <30%)” and the EC50 was in the range of 3000 to 30000 nM.

In turn, `Cc1cccc(C)c1-c1nc2nc(c1C)OC[C@@H](CC1(C(F)(F)F)CC1)N(C1CC3(CC3)C1)C(=O)c1cccc(c1)S(=O)(=O)N2` [Compound 50, (11R)-6-(2,6-Dimethylphenyl)-7-methyl-2,2-dioxo-12-spiro[2.3]hexan-5-yl-11-[[1-(trifluoromethyl)cyclopropyl]methyl]-9-oxa-2λ^6-thia-3,5,12,19-tetrazatricyclo[12.3.1.14,8]nonadeca-1(18),4(19),5,7,14,16-hexaen-13-one] had a ring closure, yield after HPLC in series [1] (from Cc1cccc(C)c1-c1nc(NS(=O)(=O)c2cccc(C(=O)O)c2)nc(OC[C@@H](CC2(C(F)(F)F)CC2)NC2CC3(CC3)C2)c1C, 13-membered ring, HATU/DIEA, DMF, 14.4 mM, 25.0 °C, 23.0 h) of 44%. Moreover, at CFTR, the “Ent. B Max Activity” value is on record as “+++ (+++ is >60%)” and the EC50 is below 1000 nM.

The molecule `Cc1cccc(C)c1-c1nc2nc(c1C)OC[C@@H](C)N(C1CC3(CC(NC(=O)OC(C)(C)C)C3)C1)C(=O)c1cccc(c1)S(=O)(=O)N2` (stereo partly drawn) [Compound 116, tert-Butyl N-{6-[(11R)-6-(2,6-dimethylphenyl)-7,11-dimethyl-2,2,13-trioxo-9-oxa-2λ^6-thia-3,5,12,19-tetraazatricyclo[12.3.1.14,8]nonadeca-1(18),4,6,8(19),14,16-hexaen-12-yl]spiro[3.3]heptan-2-yl}carbamate] registered a ring closure, yield after HPLC in series [1] (from Cc1cccc(C)c1-c1nc(NS(=O)(=O)c2cccc(C(=O)O)c2)nc(OC[C@@H](C)NC2CC3(CC(NC(=O)OC(C)(C)C)C3)C2)c1C, 13-membered ring, HATU/TEA, DMF, 26.7 mM, 1.0 h) of 57%. At CFTR, the “Ent. B Max Activity” value is “++ (++ is 30-60%)” and the EC50 was below 1000 nM.

For `Cc1cccc(C)c1-c1nc2nc(c1C)OC[C@@H](C)NC(=O)c1cccc(c1)S(=O)(=O)N2` [Compound 117, (11R)-6-(2,6-Dimethylphenyl)-7,11-dimethyl-9-oxa-2λ^6-thia-3,5,12,19-tetraazatricyclo[12.3.1.14,8]nonadeca-1(18),4,6,8(19),14,16-hexaene-2,2,13-trione], the ring closure, yield after HPLC in series [1] (from Cc1cccc(C)c1-c1nc(NS(=O)(=O)c2cccc(C(=O)O)c2)nc(OC[C@@H](C)N)c1C, 13-membered ring, HATU/DIEA, DMF, 49.3 mM, 1.0 h) is 18%. For the same molecule, at CFTR, the “Ent. B Max Activity” value was “++ (++ is 30-60%)” and the EC50 fell in the range of 1000 to 3000 nM.

In series [1] (from Cc1cccc(C)c1-c1nc(NS(=O)(=O)c2cccc(C(=O)O)n2)nc(OC[C@@H](CC(C)C)NC2CC3(CC3)C2)c1C, 13-membered ring, HATU/DIEA, DMF, 12.2 mM, 17.0 h), `Cc1cccc(C)c1-c1nc2nc(c1C)OC[C@@H](CC(C)C)N(C1CC3(CC3)C1)C(=O)c1cccc(n1)S(=O)(=O)N2` [Compound 118, (11R)-6-(2,6-Dimethylphenyl)-7-methyl-11-(2-methylpropyl)-12-{spiro[2.3]hexan-5-yl}-9-oxa-2λ^6-thia-3,5,12,18,19-pentaazatricyclo[12.3.1.14,8]nonadeca-1(17),4(19),5,7,14(18),15-hexaene-2,2,13-trione] gave a ring closure, yield after HPLC of 42%. Also, at CFTR, the “Ent. B Max Activity” value is listed as “+++ (+++ is >60%)” and the EC50 is below 1000 nM.

With `Cc1cccc(C)c1-c1nc2nc(c1C)OC[C@@H](CC(C)(C)C(F)(F)F)N(C1CC3(CCN(C(=O)OC(C)(C)C)CC3)C1)C(=O)c1cccc(c1)S(=O)(=O)N2` [Compound 156, tert-Butyl 2-[(11R)-6-(2,6-dimethylphenyl)-7-methyl-2,2,13-trioxo-11-(3,3,3-trifluoro-2,2-dimethylpropyl)-9-oxa-2λ^6-thia-3,5,12,19-tetraazatricyclo[12.3.1.14,8]nonadeca-1(17),4(19),5,7,14(18),15-hexaen-12-yl]-7-azaspiro[3.5]nonane-7-carboxylate], in series [1] (from Cc1cccc(C)c1-c1nc(NS(=O)(=O)c2cccc(C(=O)O)c2)nc(OC[C@@H](CC(C)(C)C(F)(F)F)NC2CC3(CCN(C(=O)OC(C)(C)C)CC3)C2)c1C, 13-membered ring, HATU/DIEA, DMF, 23.2 mM, 29.0 h), the ring closure, yield after HPLC worked out at 22%. Also, on CFTR, the “Ent. B Max Activity” value was “+++ (+++ is >60%)” and the EC50 was below 1000 nM.

For the molecule `CCc1c2nc(nc1-c1c(C)cccc1C)NS(=O)(=O)c1cccc(c1)C(=O)N(C1CC3(CC3)C1)[C@H](CC(C)C)CO2` [Compound 160, (11R)-6-(2,6-Dimethylphenyl)-7-ethyl-11-isobutyl-2,2-dioxo-12-spiro[2.3]hexan-5-yl-9-oxa-2λ^6-thia-3,5,12,19-tetrazatricyclo[12.3.1.14,8]nonadeca-1(17),4(19),5,7,14(18),15-hexaen-13-one], the ring closure, yield after HPLC in series [1] (from CCc1c(OC[C@@H](CC(C)C)NC2CC3(CC3)C2)nc(NS(=O)(=O)c2cccc(C(=O)O)c2)nc1-c1c(C)cccc1C, 13-membered ring, HATU/TEA, DMF, 31.1 mM, 3.0 h) was 60%. On CFTR, the “Ent. B Max Activity” value is “+++ (+++ is >60%)” and the EC50 is below 1000 nM.

In series [1] (from CCc1c(OC[C@H](N)CC(C)(C)C)nc(NS(=O)(=O)c2cccc(C(=O)O)c2)nc1-c1c(C)cccc1C, 13-membered ring, COMU/DIEA, DMF, 20.3 mM, 15.0 h), `CCc1c2nc(nc1-c1c(C)cccc1C)NS(=O)(=O)c1cccc(c1)C(=O)N[C@H](CC(C)(C)C)CO2` [Compound 161, (11R)-6-(2,6-Dimethylphenyl)-11-(2,2-dimethylpropyl)-7-ethyl-9-oxa-2λ^6-thia-3,5,12,19-tetraazatricyclo[12.3.1.14,8]nonadeca-1(18),4(19),5,7,14,16-hexaene-2,2,13-trione] had a ring closure, yield after HPLC of 41%. For the same molecule, at CFTR, the “Ent. B Max Activity” value was “+++ (+++ is >60%)” and the EC50 was below 1000 nM.

`Cc1cccc(C)c1-c1nc2nc(c1C(F)(F)F)OC[C@@H](CC(C)C)N(C1CC3(CC3)C1)C(=O)c1cccc(c1)S(=O)(=O)N2` [Compound 162, (11R)-6-(2,6-dimethylphenyl)-11-isobutyl-2,2-dioxo-12-spiro[2.3]hexan-5-yl-7-(trifluoromethyl)-9-oxa-2λ^6-thia-3,5,12,19-tetrazatricyclo[12.3.1.14,8]nonadeca-1(18),4(19),5,7,14,16-hexaen-13-one]: the ring closure, yield after HPLC in series [1] (from Cc1cccc(C)c1-c1nc(NS(=O)(=O)c2cccc(C(=O)O)c2)nc(OC[C@@H](CC(C)C)NC2CC3(CC3)C2)c1C(F)(F)F, 13-membered ring, HATU/TEA, DMF, 11.7 mM, 16.0 h) came out at 69%. On CFTR, the “Ent. B Max Activity” value was “+++ (+++ is >60%)” and the EC50 is below 1000 nM.

`Cc1cccc(C)c1-c1nc2nc(c1F)O[C@H](c1ccc(C(C)(C)C)cc1)[C@@H](C)NC(=O)c1cccc(c1)S(=O)(=O)N2` [Compound 167, (10R,11R)-10-(4-tert-Butylphenyl)-6-(2,6-dimethylphenyl)-7-fluoro-11-methyl-2,2-dioxo-9-oxa-2λ^6-thia-3,5,12,19-tetrazatricyclo[12.3.1.14,8]nonadeca-1(18),4(19),5,7,14,16-hexaen-13-one] showed a ring closure, yield after HPLC in series [1] (13-membered ring, NaOtBu then HATU, THF/DMF, 30.0 mM, 2 steps) of 30%. Further, on CFTR, the “Ent. B Max Activity” value is “+++ (+++ is >60%)” and the EC50 is below 1000 nM.

“(5M,11R)-11-(2,2-dimethylpropyl)-7-methyl-6-[2-methyl-6-(3-methylbutyl)phenyl]-12-{[5-(propan-2-yloxy)pyrimidin-2-yl]methyl}-9-oxa-2λ^6-thia-3,5,12,19-tetraazatricyclo[12.3.1.14,8] nonadeca-1(17),4(19),5,7,14(18),15-hexaene-2,2,13-trione”: in series [1] (13-membered ring, CDMT/NMM, DMF, 47.4 mM), the ring closure, yield after HPLC was 40%.

Take “(5M,11R)-11-(2,2-dimethylpropyl)-12-({5-[(2,2-dimethylpropyl)(methyl)amino]pyrimidin-2-yl}methyl)-7-methyl-6-[2-methyl-6-(2-methylpropyl)phenyl]-9-oxa-2λ^6-thia-3,5,12,19-tetraazatricyclo[12.3.1.14,8]nonadeca-1(17),4(19),5,7,14(18),15-hexaene-2,2,13-trione”: the ring closure, yield after HPLC in series [1] (13-membered ring, CDMT/NMM, DMF, 2 steps) came to 20%.

“(5P,11R)-6-(2-cyclopropyl-6-methyl-phenyl)-11-(2,2-dimethylpropyl)-7-methyl-12-[(5-morpholinopyrimidin-2-yl)methyl]-2,2-dioxo-9-oxa-2^6-thia-3,5,12,19-tetrazatricyclo[12.3.1.14,8]nonadeca-1(18),4(19),5,7,14,16-hexaen-13-one”: in series [1] (13-membered ring, CDMT/NMM, DMF, 122.0 mM), the ring closure, yield after HPLC came out at 25%.

In series [1] (13-membered ring, CDMT/NMM, DMF, 33.8 mM), “(5P,11R)-11-(2,2-dimethylpropyl)-7-methyl-6-[2-methyl-6-(3-methylbutyl)phenyl]-12-{[5-(propan-2-yloxy)pyrimidin-2-yl]methyl}-9-oxa-2λ^6-thia-3,5,12,19-tetraazatricyclo[12.3.1.14,8]nonadeca-1(17),4(19),5,7,14(18),15-hexaene-2,2,13-trione” had a ring closure, yield after HPLC of 45%.

The molecule “(5P,11R)-11-(2,2-dimethylpropyl)-12-({5-[(2,2-dimethylpropyl)(methyl)amino]pyrimidin-2-yl}methyl)-7-methyl-6-[2-methyl-6-(2-methylpropyl)phenyl]-9-oxa-2λ^6-thia-3,5,12,19-tetraazatricyclo[12.3.1.14,8]nonadeca-1(17),4(19),5,7,14(18),15-hexaene-2,2,13-trione” returned a ring closure, yield after HPLC in series [1] (13-membered ring, CDMT/NMM, DMF, 19.0 mM, 2 steps) of 11%.
